For data set [1], the system named is DT40 cells. The data set can be described thus: DT40 cell growth under chronic Hsp90 inhibition. The data set is classed as cell-based, chicken. Particulars: chronic low doses.
Procedure: The median obtained for populations treated in each condition is indicated. […] Mean+SD values for the seven populations in each condition are plotted (middle panel). […] An identical experiment to (A) was performed except that the less toxic 17-AAG was used to inhibit Hsp90. […] The effect of the two 17-AAG concentrations used on DT40 growth was monitored by calculating the total number of cells in populations originating from 10^5 cells (left panel). The data plotted is the mean+SD of triplicate cultures for each condition. […] The quantitation of AID levels (middle panel) and cell growth curves (right panel) were done as in (B).
The subject of data set [2] is IgVlambda region. Briefly: Somatic hypermutation in DT40 cells by sequencing of IgVlambda. The note with it: 0.1 microM.
In data set [3] the test system is AID-GFP. The data set can be described thus: Monitoring of AID stability: GFP signal (MFI) by flow cytometry in Ramos transfectants. The data set is classed as cell-based, human. Particulars: for degradation of AID-GFP induced by Hsp90 inhibition, with proteasome inhibitor: stable transfectants of Ramos and DT40 cells, 10 microM MG132. Here is the method:
(§1) One of two experiments is shown. […] (D) AID stabilization by Hsp90 requires protein-protein interaction. […] Dead cells were excluded by propidium iodide staining. […] One of five independent experiments is shown. […] (D) and (F) are representative of three different experiments.
(A) AID degradation following Hsp90 inhibition is distinct from nuclear AID degradation. Ramos cells stably expressing AID-GFP were treated in triplicate with DMSO (Ctrl), 2 microM GA and/or 50 ng/mL leptomycin B (LMB) and the GFP signal was monitored over time by flow cytometry. The MFI normalized to t0=100% is plotted for each treatment. Dead cells were excluded by propidium iodide staining. One out of five identical experiments is shown. […] Ramos cells stably expressing AID-GFP pretreated with 100 ng/mL cycloheximide (CHX), a known protein synthesis inhibitor, for 1 h were treated and analyzed as in (A). One out of four identical experiments is shown. (C) Cytoplasmic destabilization of AID following Hsp90 inhibition. Analogous experiments to those in A and B were performed on Ramos cells stably expressing GFP-AID, which was previously shown to be unable to enter the nucleus (probably because the N-terminal fusion of GFP to AID masks the NLS)^28. One out of three identical experiments is shown. (D) AID degradation following Hsp90 inhibition requires the proteasome. Ramos cells stably expressing AID-GFP were treated with DMSO (Ctrl), 2 microM 17-MG and 10 microM MG132, a known specific proteasome inhibitor, as indicated. The GFP signal was monitored and plotted as above. One out of five experiments is shown. (E) Lower AID steady-state levels induced by Hsp90 inhibition can be blocked by proteasome inhibition in B cell lymphoma lines. Human and chicken B-cell lines (Ramos and DT40 respectively) were treated with 2 microM GA and 10 microM MG132 and subsequently harvested as indicated. The cells were lyzed, fractionated on SDS-PAGE and blotted. Blots were probed with anti-AID and anti-actin. One out of two experiments is shown for each cell line. (F) Hsp90 inhibition enhances AID polyubiquitination. […] Immunoprecipitates were analyzed by western blot using anti-GFP and anti-ubiquitin antibodies. […] In the lower panel, the relative amount of polyubiquitinated AID was quantified by densitometry using ImageQuant™ and the relative value of three independent experiments for each Ramos, HeLa and primary mouse B cells was plotted+SD. […]
(A) DT40 cells and (B) Hela aid−/− cells stably expressing AID-GFP were treated with the indicated combinations of DMSO (Ctrl), 2 microM GA, 50 ng/mL leptomycin B (LMB), a nuclear export inhibitor and/or 10 microM MG132, a proteasome inhibitor. The GFP signal was monitored by flow cytometry and the MFI normalized to the signal at t0 for each treatment. […]
A general note: In flow cytometry, cells or beads pass a laser one at a time.

Data set [4] concerns endogenous AID. Briefly: Endogenous AID levels by western blot in B-cell lymphoma lines (Ramos, CH12-F3, DT40). Particulars: Ramos and DT40; 2 microM GA and 10 microM MG132. The data set is classed as cell-based, human, mouse and chicken. On the procedure:
as §1
(A) AID degradation following Hsp90 inhibition is distinct from nuclear AID degradation. Ramos cells stably expressing AID-GFP were treated in triplicate with DMSO (Ctrl), 2 microM GA and/or 50 ng/mL leptomycin B (LMB) and the GFP signal was monitored over time by flow cytometry. The MFI normalized to t0=100% is plotted for each treatment. Dead cells were excluded by propidium iodide staining. […] Ramos cells stably expressing AID-GFP pretreated with 100 ng/mL cycloheximide (CHX), a known protein synthesis inhibitor, for 1 h were treated and analyzed as in (A). […] The GFP signal was monitored and plotted as above. […] Immunoprecipitates were analyzed by western blot using anti-GFP and anti-ubiquitin antibodies. […] In the lower panel, the relative amount of polyubiquitinated AID was quantified by densitometry using ImageQuant™ and the relative value of three independent experiments for each Ramos, HeLa and primary mouse B cells was plotted+SD.
In cell lines stably expressing GFP-tagged AID or AID mutants, the GFP fluorescence signal was measured by flow cytometry at various time points after the indicated treatments. […]
For orientation: A western blot detects proteins with antibodies after separation by electrophoresis.

Data set [5] relates to Hsp90. The note with it: cited from earlier work.
The subject of data set [6] is various cancer cell lines. The note with it: cited from earlier work.
Data set [7] concerns AID mRNA. Particulars: breast and ovarian tissue; cited from earlier work.

Residues, ends and D or L forms follow the SMILES beside them. *: point of attachment. Cbz = O=C(OCc1ccccc1)*

With `C=CCNC1=C2C[C@@H](C)C[C@H](OC)[C@H](O)[C@@H](C)/C=C(\C)[C@H](OC(N)=O)[C@@H](OC)/C=C\C=C(/C)C(=O)NC(=CC1=O)C2=O` [17-AAG, 17-(Allylamino)-17-demethoxygeldanamycin], the cell growth entry in data set [1] is “minimal impact on cell growth”. The “decrease of mutation frequency versus controls” value in data set [2] (4 weeks) is ~5 fold. The “mutation frequency of the IgVlambda region” value in data set [2] (4 weeks of growth, 10-11 clones per population) is on record as 1.11×10^−3 mutations/base pair.

Take `C[C@@H]1C[C@@H]([C@H](O)CC2CC(=O)NC(=O)C2)C(=O)[C@@H](C)C1` [CHX, cycloheximide]: the “decay of AID-GFP after protein synthesis inhibition” value in data set [3] (Ramos, CHX alone) is reported as “expected decay”.

In the case of `COC1=C2C[C@@H](C)C[C@H](OC)[C@H](O)[C@@H](C)/C=C(\C)[C@H](OC(N)=O)[C@@H](OC)/C=C\C=C(/C)C(=O)NC(=CC1=O)C2=O` [GA, geldanamycin], the cell growth entry in data set [1] is “delayed cell growth”.

`CCC(=C/[C@H](C)C/C=C/C(C)=C/[C@@H](C)C(=O)[C@@H](C)[C@H](O)[C@@H](C)C/C(C)=C/C(=O)O)/C=C/[C@@H]1OC(=O)C=C[C@@H]1C` [LMB, leptomycin B]: the “stability of GFP-AID (unable to enter the nucleus)” value in data set [3] (Ramos expressing GFP-AID) is on record as “not destabilized”.

With `CC(C)C[C@@H](C=O)NC(=O)[C@H](CC(C)C)NC(=O)[C@H](CC(C)C)NC(=O)OCc1ccccc1` [MG132] (Cbz-Leu-Leu-Leu-aldehyde), the “degradation of endogenous AID induced by Hsp90 inhibition, with proteasome inhibitor” value in data set [4] was “prevented the degradation of AID”. Moreover, in data set [3], the “degradation of AID-GFP induced by Hsp90 inhibition, with proteasome inhibitor” value is listed as “prevented the degradation of AID”.

Consider `O=C1OCC/C=C/CC/C=C/C(=N/OCC(=O)N2CCCCC2)Cc2c(Cl)c(O)cc(O)c21` [NXD30001], for which the “Hsp90 binding affinity compared to 17-MG and 17-DMAG” value in data set [5] is given as “enhanced”. Besides, the “potency in inhibiting cell growth in vitro compared to 17-MG and 17-DMAG” value in data set [6] is “enhanced”.

Turning to `CC(=O)N[C@@H](CSC(=O)[C@]1([C@@H](O)C(C)C)NC(=O)[C@H](C)[C@@H]1O)C(=O)O` [lactacystin], in data set [3], the “degradation of AID-GFP induced by Hsp90 inhibition, with proteasome inhibitor” value is reported as “Identical results”.

As for estrogen, the “increase in AID mRNA production” value in data set [7] is given as > 20 fold.

These data come from US20110237560A1, “MODULATING AND/OR DETECTING ACTIVATION INDUCED DEAMINASE AND METHODS OF USE THEREOF” (priority 2010, published 2011).
